Molecules are shown by their SMILES. ≈ marks a conversion by molar mass, not a printed value. Where two headings read alike, the source gives them in different places.

Test [1] relates to Mycobacterium tuberculosis H37Rv. Put plainly: Mycobacterium tuberculosis H37Rv Inhibition Assay (Whole Cell Assay). In kind it is cell-based. To be noted: ATCC 25618 / H37Rv, H37Rv strain (ATCC25618), Middlebrook 7H9, six days at 37° C., resazurin fluorescence after 48 hours.
The target of test [2] is T1, InhA (Mycobacterium tuberculosis, UniProt P9WGR1).
T1 construct: made in house; host or cells: E. coli
In words: Mycobacterium tuberculosis InhA Inhibition Assay (Enzyme Assay). In kind it is biochemical. As to conditions: 5 nM InhA, 50 μM DDCoA, 50 μM NADH, PIPES buffer pH 6.8, initial velocities of NADH consumption. How it is done:
InhA is able to reduce 2-trans enoyl-CoA esters with concomitant oxidation of NADH to NAD^+. The assay format is based on the kinetic detection of NADH consumption.
Assay for InhA inhibition is carried out with mycobacterium recombinant protein expressed and purified form E. coli. Standard assay conditions for the determination of kinetic constants and inhibitors activity use 5 nM of InhA, 50 μM of Dodecenoyl-CoA synthesized and purified as described by Quémard et al (DDCoA) and 50 μM of NADH as substrates, and it is carried out in 30 mM PIPES buffer pH 6.8, containing 0.05% of BSA. […] Triclosan is used as positive control in every experiment. One μl of compounds is added to the wells containing 25 μl of the DDCoA+NADH mix, the reaction is started by adding 50 μl of the enzyme solution. Fluorescence from NADH is followed at room temperature during 20 minutes in a fluorescent plate reader (excitation at 340 nm; emission at 480 nm). IC50 values are determined using initial velocities of NADH consumption. • Quémard A, Sacchettini J C, Dessen A, et al. Enzymatic characterization of the target for isoniazid in Mycobacterium tuberculosis. Biochemistry 1995; 34:8235-41. Results of the Mycobacterium tuberculosis InhA Inhibition Assay (Enzyme Assay)

T1 sequence (P9WGR1 whole entry, looked up): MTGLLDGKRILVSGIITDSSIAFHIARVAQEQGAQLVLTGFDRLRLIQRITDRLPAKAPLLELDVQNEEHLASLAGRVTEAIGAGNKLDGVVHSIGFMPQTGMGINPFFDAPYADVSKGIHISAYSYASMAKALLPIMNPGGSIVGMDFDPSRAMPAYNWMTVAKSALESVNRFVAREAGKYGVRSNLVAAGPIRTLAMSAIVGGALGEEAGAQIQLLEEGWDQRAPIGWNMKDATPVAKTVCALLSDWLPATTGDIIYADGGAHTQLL

Turning to `Cc1csc(C(C)(O)c2nnc(Nc3ccn(Cc4cc(C)on4)n3)s2)n1` (centres unmarked) [Example 22, 1-[5-({1-[(5-methyl-3-isoxazolyl)methyl]-1H-pyrazol-3-yl}amino)-1,3,4-thiadiazol-2-yl]-1-(4-methyl-1,3-thiazol-2-yl)ethanol], the MIC – broadly, the lowest concentration that inhibits growth of the organism – in test [1] is 4 to 10 µM (≈ 1.61 to 4.03 µg/mL). Besides, the IC50 (in general, the concentration that gives 50% inhibition) in test [2] (read-out: IC50 value) was in the range of 0.124 to 0.248 µM.

`Cc1ccn(C(C)c2nnc(Nc3ccn(Cc4csc(C)n4)n3)s2)n1` (centres unmarked) [Example 23, 5-[1-(3-methyl-1H-pyrazol-1-yl)ethyl]-N-{1-[(2-methyl-1,3-thiazol-4-yl)methyl]-1H-pyrazol-3-yl}-1,3,4-thiadiazol-2-amine] displayed an MIC in test [1] of 4 to 10 µM (≈ 1.55 to 3.87 µg/mL). The IC50 in test [2] (read-out: IC50 value) lay in the range of 0.129 to 0.259 µM.

In test [1], `Cc1csc(C(C)(O)c2nnc(Nc3ccn(Cc4cn5ccccc5n4)n3)s2)n1` (centres unmarked) [Example 24, 1-(5-{[1-(imidazo[1,2-a]pyridin-2-ylmethyl)-1H-pyrazol-3-yl]amino}-1,3,4-thiadiazol-2-yl)-1-(4-methyl-1,3-thiazol-2-yl)ethanol] returned a minimum inhibitory concentration (MIC) of 4 to 10 µM (≈ 1.75 to 4.39 µg/mL). For the same compound, the IC50 in test [2] (read-out: IC50 value) lay within 0.114 to 0.228 µM.

`Cc1csc(C(C)(O)c2nnc(Nc3ccn(Cc4cnn(C)c4)n3)s2)n1` (centres unmarked) [Example 25, 1-[5-({1-[(1-methyl-1H-pyrazol-4-yl)methyl]-1H-pyrazol-3-yl}amino)-1,3,4-thiadiazol-2-yl]-1-(4-methyl-1,3-thiazol-2-yl)ethanol]: the MIC in test [1] was above 10 µM. Moreover, in test [2] (IC50 value), the IC50 lay in the range of 0.248 to 1.24 µM.

Consider `Cc1csc(C(C)(O)c2nnc(Nc3ccn(Cc4c(C)noc4C)n3)s2)n1` (centres unmarked) [Example 26, 1-[5-({1-[(3,5-dimethyl-4-isoxazolyl)methyl]-1H-pyrazol-3-yl}amino)-1,3,4-thiadiazol-2-yl]-1-(4-methyl-1,3-thiazol-2-yl)ethanol], for which the MIC in test [1] was above 10 µM. Besides, in test [2] (IC50 value), the IC50 is above 1.2 µM.

`Cc1ccn(C(C)c2nnc(Nc3ccn(Cc4c(C)noc4C)n3)s2)n1` (centres unmarked) [Example 27, N-{1-[(3,5-dimethyl-4-isoxazolyl)methyl]-1H-pyrazol-3-yl}-5-[1-(3-methyl-1H-pyrazol-1-yl)ethyl]-1,3,4-thiadiazol-2-amine] registered an MIC in test [1] above 10 µM. This compound gave an IC50 in test [2] (IC50 value) above 1.3 µM.

As for `Cc1csc(C(C)(O)c2nnc(Nc3cc(C)n(Cc4ncccc4F)n3)s2)n1` (centres unmarked) [Example 28, 1-[5-({1-[(3-fluoro-2-pyridinyl)methyl]-5-methyl-1H-pyrazol-3-yl}amino)-1,3,4-thiadiazol-2-yl]-1-(4-methyl-1,3-thiazol-2-yl)ethanol], the MIC in test [1] is at most 4 µM. The IC50 in test [2] (IC50 value) is at most 0.116 µM.

`Cc1ccn(C(C)c2nnc(Nc3cc(C)n(Cc4ncccc4F)n3)s2)n1` (centres unmarked) [Example 29, N-{1-[(3-fluoro-2-pyridinyl)methyl]-5-methyl-1H-pyrazol-3-yl}-5-[1-(3-methyl-1H-pyrazol-1-yl)ethyl]-1,3,4-thiadiazol-2-amine] had an MIC in test [1] of at most 4 µM. Besides, the IC50 in test [2] (IC50 value) was at most 0.125 µM.

As to `CCOc1cnc(Cn2ccc(Nc3nnc(C(C)(O)c4nc(C)cs4)s3)n2)c(F)c1` (centres unmarked) [Example 30, 1-{5-[(1-{[5-(ethyloxy)-3-fluoro-2-pyridinyl]methyl}-1H-pyrazol-3-yl)amino]-1,3,4-thiadiazol-2-yl}-1-(4-methyl-1,3-thiazol-2-yl)ethanol], the MIC in test [1] is above 10 µM. In test [2] (IC50 value), this compound showed an IC50 of 0.217 to 1.08 µM.

For `COc1c(C)cnc(Cn2ccc(Nc3nnc(C(C)(O)c4nc(C)cs4)s3)n2)c1C` (centres unmarked) [Example 31, 1-{5-[(1-{[3,5-dimethyl-4-(methyloxy)-2-pyridinyl]methyl}-1H-pyrazol-3-yl)amino]-1,3,4-thiadiazol-2-yl}-1-(4-methyl-1,3-thiazol-2-yl)ethanol], the MIC in test [1] was above 10 µM. Besides, the IC50 in test [2] (IC50 value) lay within 0.219 to 1.09 µM.

For the compound `Cc1csc(C(C)(O)c2nnc(Nc3ccn(Cc4c(F)cncc4F)n3)s2)n1` (centres unmarked) [Example 32, 1-[5-({1-[(3,5-difluoro-4-pyridinyl)methyl]-1H-pyrazol-3-yl}amino)-1,3,4-thiadiazol-2-yl]-1-(4-methyl-1,3-thiazol-2-yl)ethanol], in test [1], the MIC is above 10 µM. In addition, the IC50 in test [2] (IC50 value) was above 1.15 µM.

As to `Cc1csc(C(C)(O)c2nnc(Nc3ccn(Cc4[nH]ccc(=O)c4F)n3)s2)n1` (centres unmarked) [Example 33, 3-fluoro-2-{[3-({5-[1-hydroxy-1-(4-methyl-1,3-thiazol-2-yl)ethyl]-1,3,4-thiadiazol-2-yl}amino)-1H-pyrazol-1-yl]methyl}-4(1H)-pyridinone], the MIC in test [1] was above 10 µM. In addition, the IC50 in test [2] (IC50 value) was above 1.15 µM.

For `Cc1csc(C(C)c2nnc(Nc3ccn(Cc4ncccc4F)n3)s2)n1` (centres unmarked) [Example 34, N-{1-[(3-fluoro-2-pyridinyl)methyl]-1H-pyrazol-3-yl}-5-[1-(4-methyl-1,3-thiazol-2-yl)ethyl]-1,3,4-thiadiazol-2-amine], the MIC in test [1] was at most 4 µM. In test [2] (read-out: IC50 value), the IC50 was at most 0.125 µM.

For `Cc1cc(C)n(C(C)c2nnc(Nc3ccn(C(C)c4ncccc4F)n3)s2)n1` (centres unmarked) [Example 35, 5-[1-(3,5-dimethyl-1H-pyrazol-1-yl)ethyl]-N-{1-[1-(3-fluoro-2-pyridinyl)ethyl]-1H-pyrazol-3-yl}-1,3,4-thiadiazol-2-amine], the MIC in test [1] is above 10 µM. Moreover, the IC50 in test [2] (read-out: IC50 value) is at most 0.121 µM.

In test [1], `CCOc1cccc(Cn2ccc(Nc3nnc(C(C)n4nc(C)cc4C)s3)n2)n1` (centres unmarked) [Example 36, 5-[1-(3,5-dimethyl-1H-pyrazol-1-yl)ethyl]-N-(1-{[6-(ethyloxy)-2-pyridinyl]methyl}-1H-pyrazol-3-yl)-1,3,4-thiadiazol-2-amine] showed an MIC above 10 µM. Further, the IC50 in test [2] (read-out: IC50 value) was at most 0.118 µM.

`Cc1csc(C(C)(O)c2nnc(Nc3ccn(Cc4nccc(C)c4F)n3)s2)n1` (centres unmarked) [Example 37, 1-[5-({1-[(3-fluoro-4-methyl-2-pyridinyl)methyl]-1H-pyrazol-3-yl}amino)-1,3,4-thiadiazol-2-yl]-1-(4-methyl-1,3-thiazol-2-yl)ethanol]: the MIC in test [1] was at most 4 µM. In test [2] (read-out: IC50 value), the IC50 is at most 0.116 µM.

On to `Cc1csc(C(C)(O)c2nnc(Nc3nn(Cc4csc(C)n4)c4ccccc34)s2)n1` (centres unmarked) [Example 45, 1-(4-methyl-1,3-thiazol-2-yl)-1-[5-({1-[(2-methyl-1,3-thiazol-4-yl)methyl]-1H-indazol-3-yl}amino)-1,3,4-thiadiazol-2-yl]ethanol], for which the MIC in test [1] is above 10 µM. The compound also returned an IC50 in test [2] (IC50 value) of 0.213 to 1.06 µM.

Compound `Cc1ccn(C(C)c2nnc(Nc3nn(Cc4csc(C)n4)c4ccccc34)s2)n1` (centres unmarked) [Example 46, N-{5-[1-(3-methyl-1H-pyrazol-1-yl)ethyl]-1,3,4-thiadiazol-2-yl}-1-[(2-methyl-1,3-thiazol-4-yl)methyl]-1H-indazol-3-amine] displayed an MIC in test [1] above 10 µM. In test [2] (IC50 value), this compound registered an IC50 above 1.15 µM.

Turning to `CCc1csc(C(C)(O)c2nnc(Nc3ccn(Cc4csc(C)n4)n3)s2)n1` (centres unmarked) [Example 47, 1-(4-ethylthiazol-2-yl)-1-(5-((1-((2-methylthiazol-4-yl)methyl)-1H-pyrazol-3-yl)amino)-1,3,4-thiadiazol-2-yl)ethanol], the MIC in test [1] is at most 1 µM. Moreover, the IC50 in test [2] (IC50 value) is at most 0.115 µM.

Values taken from patent publication US9334265B2, “3-amino-pyrazole derivatives useful against tuberculosis” (GLAXO GROUP LIMITED, priority 2010, dated 2016).
